We go through two compounds from patent EP2229935A1, “Peptide derivatives or pharmaceutically acceptable salts thereof, method for producing the same, use of said derivatives and pharmaceutical composition” (Nebolsin, Vladimir Evgenievich, priority 1997, dated 1999).

For one assay, the system named is [C^14]-arachidonic acid. The assay is described as follows: Metabolism of [C^14]-arachidonic acid in pulmonary tissue homogenate of treated mice. The format is in vivo, CBA male mice. Conditions: CBA mice lung homogenate; 50 µg/kg for three days. As for the experimental part:
Studies were carried out on CBA male mice fed a standard vivarium ration. […] Then animals were sacrified, their lungs were taken out, frozen in liquid nitrogen, homogenized in a glass homogenizer manufactured by the Wheaton company (U.S.A.) at +4°C in 10 volumes 0.05 M Tris-HCl buffer. […] Densitometry of the autoradiochromatograms obtained on the X-ray films X-Omat AR (Kodak, U.S.A.) and HS 11 (ORWO, Germany) were performed on the KS 3 densiscan (Kipp and Zonnen, Holland). Quantative analysis of individual eucosanoids was carried out using radiometry of the fractions obtained with high performance liquid chromatography (the Gilson company HPLC-system, France; the Du Pont company ZORBAX C8 column, U.S.A.) and with elution of spots on TLC-plates.

Assay [1] has as its system peripheral blood neutrophils. Description: Activity of peripheral blood neutrophils in mice with LLC. The format is in vivo, C57BL/6 female mice. The conditions noted are these: compound III 500.0 µg/kg for 10 days. As for the experimental part: Experiments were carried out on C57BL/6 female mice with intramuscularly transplanted LLC carcinoma. Activity of neutrophils was measured by days 11 and 14.
• control - animals with LLC tumor, 10 animals; • animals with LLC tumor + compound III at a dose 500.0 µg/kg for 10 days. 8 animals; • animals with LLC tumor + Cyclophosphane 5 times at a dose 20.0 mg/kg (in 48 hours) for 10 days, 8 animals; • compound III and Cyclophosphane according to the above dosage regimen, 8 animals.
Experiment duration was 14 days.

In another assay the test system is mongrel rats. The assay is described as follows: Antiischemic activity: necrosis zone after coronary artery occlusion (myocardial infarction). The conditions noted are these: 4 hours after coronary artery occlusion, oral 4 days. The format is in vivo. The protocol:
Antiischemic activity of a compound was assessed by an integral test, i.e. effect on the necrosis zone area following reproduction of myocardial infarction in mongrel rats weighing 250-300 g.
Effect of a compound on the necrosis zone area was studied in 4 hours after arterial occlusion in rats using a differential indicator method [Sernov L.N., Gatsura V.V. A differential indicator method for determinig ischemic and necrotic zone in experimental myocardial infarction in rats. Bulletin of Experimental Biology and Medicine (1989), No 5, pp. 534-535]. All the painful manipulations were performed on animals under Ethaminal anesthesia (Ethaminal - 40 mg/kg intraperitoneally). Experiment was carried out in 15 hours after the last compound administration. Each group included 8 animals.
Groups of animals: • Group 1 - intact control -administration of normal saline four times. • Groups 2 and 3 - oral administration of the compound III at doses respectively 50 and 500 µg/kg for 4 days. • Group 4 - single intraperitoneal administration of Nicorandil at a dose 1 mg/kg immediately after occlusion.

Assay [2] has as its system thromboxane A2 and prostacycline. The assay is described as follows: Prostacycline to thromboxane ratio in mice with Lewis pulmonary carcinoma. In kind it is in vivo, C57B1 male mice. The conditions noted are these: mice with transplanted Lewis carcinoma, day 24; 500 µg/kg per day in drinking water. The protocol: Experiments were carried out on C57B1 male mice weighing 18-20 g. Lewis pulmonary carcinoma (generation 3) transplantation was performed according to a conventional technique [Experimental estrimation of antitumor drugs in the U.S.S.R. and the U.S.A. edited by E.P.Sof'ina, A.B.Syrkin, A.Goldin, A.Kline. Moscow, Meditsina publishers (1980), 296 pp.]. Each group included 8 animals. Administration of compound III at a dose 500 µg/kg per day in drinking water was commenced since 24 hours after tumor transplantation.
Determination of thromboxane A2 and prostacycline was done according to the technique described in example 35. By day 24 of experiments animals were sacrified and the test parameters were determined.
Groups of animals: • Group 1 - intact control. • Group 2 - mice with transplanted Lewis carcinoma. • Group 3 - mice with transplanted Lewis carcinoma + compound III.

For a further assay, the system named is Human lymphocytes. The assay is described as follows: PHA-induced blasttransformation of lymphocytes. The format is cell-based. The protocol:
Human lymphocytes were used for blasttransformation reaction [Kiseleva E.P., Tsveibakh A.S., Goldman E.I., Pigareva N.V. Application of a micromethod to study blasttransformation of lymphocytes in humans and animals. Immunology (1985), No 1, pp. 76-78]. 10 ml blood were collected into a sterile syringe containing heparine (to final concentration 25 U/ml) and incubated to sediment red blood cells (60-90 minutes at 37°C). Leukocytic suspension layer was selected and the number of nucleated cells was calculated. The cells obtained in such a way were incubated for 72 hours in a humid atmosphere with 5% CO2 at 37°C in the cells of plates for immune reactions in RPMI-1640 medium comprising 15% fetal calf serum, […] Neomycine (incubation mixture volume 0.15 ml). 5 x 10^5 cells were introduced into each plate cell. Incubation was carried out in the presence or absence of mitogen phytohemagglutinin (PHA) (Sigma) […] or concanavalin A (ConA) (Sigma) […] with or without addition of the test compounds at different concentrations. […] H^3 -thymidine in RPMI-1640 medium were introduced into each cell 16 hours before incubation termination. Following culturing period termination, 0.15 ml cellular suspension from each plate cell were transferred on the FN-8 paper filters. Filters were dried, washed two times with normal saline for 5 minutes then twice with TCA for 60 minutes. After drying, radioactivity of samples was calculated on a counter in the ZhS-8 scintillator. Stimulation index was calculated as ratio of sample radioactivity with mitogen to sample radioactivity without mitogen.

Marks after values point to notes of the source that are not given here.

`O=C(O)CCCC(=O)NCCc1c[nH]cn1` [compound III, N-GLUTARYLHISTAMINE]: in assay [C^14]-arachidonic acid, the “5-HETE+HHT, percent of AA conversion” value is reported as 13.64 ± 0.26% of AA conversion; the “6-keto-PGF1α, percent of AA conversion” value is reported as 7.95 ± 0.28% of AA conversion; the “12-, 15-HETE, percent of AA conversion” value is reported as 23.82 ± 0.82% of AA conversion; the “PGE2, percent of AA conversion” value is 3.07 ± 0.11% of AA conversion. Besides, in assay [C^14]-arachidonic acid, the “PGF2α, percent of AA conversion” value is 8.05 ± 0.15% of AA conversion; the “Phospholipids, percent of AA conversion” value is on record as 7.41 ± 0.25% of AA conversion; the “TXB2, percent of AA conversion” value is given as 5.76 ± 0.24% of AA conversion; the “Unmetabolized AA, percent of AA conversion” value is given as 15.32 ± 1.56% of AA conversion. The “Percent of active neutrophils” value in assay [1] (Background) was 20.1 ± 2.7%. Further, in assay [1] (day 11), the “Percent of active neutrophils” value is 9.3 ± 1.7%. In assay [1] (day 14), the “Percent of active neutrophils” value is 15.3 ± 4.3%. Also, in the assay with mongrel rats (50 µg/kg), the “Ischemia zone, percent to the total myocardial mass” value was 27,2 ± 2,8%; the “Necrosis zone percent to myocardial zone” value was 56,8 ± 2,7%; the “Necrosis zone, percent to the total myocardial mass” value was 15,4 ± 1,7%. For the same compound, in the assay on mongrel rats (500 µg/kg), the “Ischemia zone, percent to the total myocardial mass” value is 31,1 ± 3,1%; the “Necrosis zone percent to myocardial zone” value is reported as 54,3 ± 2,1%; the “Necrosis zone, percent to the total myocardial mass” value is reported as 17,8 ± 1,0%. Moreover, in assay [2], the Prostacycline is 5.80 ± 0.75*^2, the “Ratio 6-keto-PGF1α :TXB2” value was 0.80 ± 0.11*^2 and the “Thromboxane A2” value is given as 7.23 ± 0.18*^C.

In the case of γ-L-glutamylhistamine [compound XLIV], the “blasttranformation reaction of human lymphocytes induced by PHA” value with Human lymphocytes is on record as “stimulating effect”. Further, the “Radioactivity, number of pulses for 20 seconds” value was 3276 ± 225 number of pulses for 20 seconds in the assay with Human lymphocytes (10^-4 M/l, +PHA); 301 ± 103 number of pulses for 20 seconds with Human lymphocytes (10^-4 M/l, no mitogen); 2999 ± 213 number of pulses for 20 seconds in the assay with Human lymphocytes (10^-5 M/l, +PHA); 132 ± 13 number of pulses for 20 seconds in the assay with Human lymphocytes (10^-5 M/l, no mitogen); 4414 ± 570 number of pulses for 20 seconds in the assay on Human lymphocytes (10^-6 M/l, +PHA); 150 ± 33 number of pulses for 20 seconds in the assay on Human lymphocytes (10^-6 M/l, no mitogen). In addition, the “Radioactivity, number of pulses for 20 seconds” value in the assay on Human lymphocytes (10^-7 M/l, +PHA) was 2960 ± 210 number of pulses for 20 seconds; in the assay on Human lymphocytes (10^-7 M/l, no mitogen), 300 ± 107 number of pulses for 20 seconds; in the assay on Human lymphocytes (10^-8 M/l, +PHA), 3830 ± 286 number of pulses for 20 seconds; in the assay on Human lymphocytes (10^-8 M/l, no mitogen) it was 261 ± 100 number of pulses for 20 seconds. For the same compound, the Stimulation index with Human lymphocytes (10^-4 M/l, +PHA) was found to be 10.9; in the assay on Human lymphocytes (10^-5 M/l, +PHA) it was 23.2; in the assay with Human lymphocytes (10^-6 M/l, +PHA), 29.6; in the assay with Human lymphocytes (10^-7 M/l, +PHA) it was 9.9; in the assay on Human lymphocytes (10^-8 M/l, +PHA), 14.7.
